Assay results reported in US10988462B2, “Pyrazole compounds substituted with heteroaryl and pharmaceutical use thereof” (Japan Tobacco Inc., priority 2018, dated 2021).

Columns and labels:
[1] = test system: Salmonella typhimurium TA98; test: Ames test (reverse mutation test), pre-incubation method, strain TA98; details: for potential to induce reverse mutations: TA98, in the presence of S9 mix
Procedure: (§1) Ames Test (Reverse Mutation Test)
(§2) Metabolites 1 to 3 and Metabolites A to E were each tested herein. The purpose of this test is to evaluate the potential of each metabolite to induce reverse mutations in the standard strains of Salmonella typhimurium (TA98, TA1537, TA100, and TA1535) and Escherichia coli (WP2uvrA), in either the presence or absence of a rat liver metabolic activation system (S9 mix).
(§3) The solvent used herein was dimethyl sulfoxide (DMSO, 100 μL/plate).
(§4) The test was performed by the pre-incubation method with or without S9 mix. When the test was performed without S9 mix, sodium phosphate buffer solution (pH 7.4) was added.
(§5) 0.5 mL of S9 mix or 0.5 mL of 0.1 mol/L sodium phosphate buffer solution (pH 7.4), and 0.1 mL of the bacterial culture solution were added to a test tube containing 0.1 mL of the negative control formulation (DMSO alone), the metabolite, or the positive control formulation. The mixtures were pre-incubated at 37° C. for 20 minutes while shaking. After the pre-incubation period, 2 mL of top agar were added and the mixtures were vortex-mixed and seeded onto plates. Two plates per treatment were used. Each plate was incubated at 37±1° C. for 48 hours or more and the revertant colonies were counted. The mean number of revertant colonies for each treatment plate was then calculated. The presence or absence of growth inhibition due to any antibacterial effect of the test article and precipitation of the test article was observed grossly or under a stereomicroscope. […] Evaluation was based on mean values with no statistical comparisons being used.

[2] = test system: Salmonella typhimurium TA1537; test: Ames test (reverse mutation test), pre-incubation method, strain TA1537; format: cell-based; details: for potential to induce reverse mutations: TA1537
Procedure: as §1, §2, §3, §4, §5

[3] = test system: Salmonella typhimurium TA100; test: Ames test (reverse mutation test), pre-incubation method, strain TA100; format: cell-based; details: for potential to induce reverse mutations: TA100, in the presence of S9 mix
Procedure: as §1, §2, §3, §4, §5

[4] = test system: Salmonella typhimurium TA1535; test: Ames test (reverse mutation test), pre-incubation method, strain TA1535; format: cell-based
Procedure: as §1, §2, §3, §4, §5

Escherichia coli WP2uvrA = test: Ames test (reverse mutation test), pre-incubation method, strain WP2uvrA; format: cell-based
Text: as §1
Two plates per treatment were used.

CC(C)(Oc1cc(F)cc(-c2cc(N)nn2-c2cnc(C(F)(F)F)nc2)c1)C(F)(F)F [Metabolite 1]
Number of revertant colonies TA98 ([1]; S9 mix +, dose 185 μg/plate): 40 | Number of revertant colonies TA98 ([1]; S9 mix −, dose 21 μg/plate): 32 | Number of revertant colonies TA1537 ([2]; S9 mix +, dose 6.9 μg/plate): 13 | Number of revertant colonies TA1537 ([2]; S9 mix +, dose 21 μg/plate): 12 | Number of revertant colonies TA1537 ([2]; S9 mix +, dose 62 μg/plate): 13 | Number of revertant colonies TA1537 ([2]; S9 mix +, dose 185 μg/plate): 13 | Number of revertant colonies TA1537 ([2]; S9 mix +, dose 556 μg/plate): 10 | Number of revertant colonies TA1537 ([2]; S9 mix +, dose 1667 μg/plate): 9 | Number of revertant colonies TA1537 ([2]; S9 mix +, dose 5000 μg/plate): 4 | Number of revertant colonies TA1537 ([2]; S9 mix −, dose 6.9 μg/plate): 8 | Number of revertant colonies TA1537 ([2]; S9 mix −, dose 21 μg/plate): 8 | Number of revertant colonies TA1537 ([2]; S9 mix −, dose 62 μg/plate): 8 | Number of revertant colonies TA1537 ([2]; S9 mix −, dose 185 μg/plate): 9 | Number of revertant colonies TA1537 ([2]; S9 mix −, dose 556 μg/plate): 9 | Number of revertant colonies TA1537 ([2]; S9 mix −, dose 1667 μg/plate): 5 | Number of revertant colonies TA1537 ([2]; S9 mix −, dose 5000 μg/plate): 3 | Number of revertant colonies TA100 ([3]; S9 mix +, dose 6.9 μg/plate): 132 | Number of revertant colonies TA100 ([3]; S9 mix +, dose 21 μg/plate): 132 | Number of revertant colonies TA100 ([3]; S9 mix +, dose 62 μg/plate): 113 | Number of revertant colonies TA100 ([3]; S9 mix +, dose 185 μg/plate): 108 | Number of revertant colonies TA100 ([3]; S9 mix +, dose 556 μg/plate): 128 | Number of revertant colonies TA100 ([3]; S9 mix +, dose 1667 μg/plate): 131 | Number of revertant colonies TA100 ([3]; S9 mix +, dose 5000 μg/plate): 121 | Number of revertant colonies TA100 ([3]; S9 mix −, dose 6.9 μg/plate): 89 | Number of revertant colonies TA100 ([3]; S9 mix −, dose 21 μg/plate): 87 | Number of revertant colonies TA100 ([3]; S9 mix −, dose 62 μg/plate): 87 | Number of revertant colonies TA100 ([3]; S9 mix −, dose 185 μg/plate): 89 | Number of revertant colonies TA100 ([3]; S9 mix −, dose 556 μg/plate): 80 | Number of revertant colonies TA100 ([3]; S9 mix −, dose 1667 μg/plate): 69 | Number of revertant colonies TA100 ([3]; S9 mix −, dose 5000 μg/plate): 47 | Number of revertant colonies TA1535 ([4]; S9 mix +, dose 6.9 μg/plate): 10 | Number of revertant colonies TA1535 ([4]; S9 mix +, dose 21 μg/plate): 8 | Number of revertant colonies TA1535 ([4]; S9 mix +, dose 62 μg/plate): 9 | Number of revertant colonies TA1535 ([4]; S9 mix +, dose 185 μg/plate): 10 | Number of revertant colonies TA1535 ([4]; S9 mix +, dose 556 μg/plate): 9 | Number of revertant colonies TA1535 ([4]; S9 mix +, dose 1667 μg/plate): 10 | Number of revertant colonies TA1535 ([4]; S9 mix +, dose 5000 μg/plate): 7 | Number of revertant colonies TA1535 ([4]; S9 mix −, dose 6.9 μg/plate): 11 | Number of revertant colonies TA1535 ([4]; S9 mix −, dose 21 μg/plate): 10 | Number of revertant colonies TA1535 ([4]; S9 mix −, dose 62 μg/plate): 9 | Number of revertant colonies TA1535 ([4]; S9 mix −, dose 185 μg/plate): 7 | Number of revertant colonies TA1535 ([4]; S9 mix −, dose 556 μg/plate): 9 | Number of revertant colonies TA1535 ([4]; S9 mix −, dose 1667 μg/plate): 5 | Number of revertant colonies TA1535 ([4]; S9 mix −, dose 5000 μg/plate): 7 | Number of revertant colonies WP2uvrA (Escherichia coli WP2uvrA; S9 mix +, dose 6.9 μg/plate): 18 | Number of revertant colonies WP2uvrA (Escherichia coli WP2uvrA; S9 mix +, dose 21 μg/plate): 20 | Number of revertant colonies WP2uvrA (Escherichia coli WP2uvrA; S9 mix +, dose 62 μg/plate): 18 | Number of revertant colonies WP2uvrA (Escherichia coli WP2uvrA; S9 mix +, dose 185 μg/plate): 16 | Number of revertant colonies WP2uvrA (Escherichia coli WP2uvrA; S9 mix +, dose 556 μg/plate): 18 | Number of revertant colonies WP2uvrA (Escherichia coli WP2uvrA; S9 mix +, dose 1667 μg/plate): 14 | Number of revertant colonies WP2uvrA (Escherichia coli WP2uvrA; S9 mix +, dose 5000 μg/plate): 11 | Number of revertant colonies WP2uvrA (Escherichia coli WP2uvrA; S9 mix −, dose 6.9 μg/plate): 17 | Number of revertant colonies WP2uvrA (Escherichia coli WP2uvrA; S9 mix −, dose 21 μg/plate): 19 | Number of revertant colonies WP2uvrA (Escherichia coli WP2uvrA; S9 mix −, dose 62 μg/plate): 16 | Number of revertant colonies WP2uvrA (Escherichia coli WP2uvrA; S9 mix −, dose 185 μg/plate): 17 | Number of revertant colonies WP2uvrA (Escherichia coli WP2uvrA; S9 mix −, dose 556 μg/plate): 18 | Number of revertant colonies WP2uvrA (Escherichia coli WP2uvrA; S9 mix −, dose 1667 μg/plate): 15 | Number of revertant colonies WP2uvrA (Escherichia coli WP2uvrA; S9 mix −, dose 5000 μg/plate): 9

Nc1cc(-c2cc(F)cc(OC(F)(F)F)c2)n(-c2cncc(C(F)(F)F)c2)n1 [Metabolite 3]
Number of revertant colonies TA98 ([1]; S9 mix +, dose 62 μg/plate): 38 | Number of revertant colonies TA98 ([1]; S9 mix −, dose 62 μg/plate): 29 | Number of revertant colonies TA1537 ([2]; S9 mix +, dose 6.9 μg/plate): 13 | Number of revertant colonies TA1537 ([2]; S9 mix +, dose 21 μg/plate): 11 | Number of revertant colonies TA1537 ([2]; S9 mix +, dose 62 μg/plate): 12 | Number of revertant colonies TA1537 ([2]; S9 mix +, dose 185 μg/plate): 12 | Number of revertant colonies TA1537 ([2]; S9 mix +, dose 556 μg/plate): 8 | Number of revertant colonies TA1537 ([2]; S9 mix +, dose 1667 μg/plate): 3 | Number of revertant colonies TA1537 ([2]; S9 mix +, dose 5000 μg/plate): 1 | Number of revertant colonies TA1537 ([2]; S9 mix −, dose 6.9 μg/plate): 8 | Number of revertant colonies TA1537 ([2]; S9 mix −, dose 21 μg/plate): 7 | Number of revertant colonies TA1537 ([2]; S9 mix −, dose 62 μg/plate): 8 | Number of revertant colonies TA1537 ([2]; S9 mix −, dose 185 μg/plate): 7 | Number of revertant colonies TA1537 ([2]; S9 mix −, dose 556 μg/plate): 2 | Number of revertant colonies TA1537 ([2]; S9 mix −, dose 1667 μg/plate): 3 | Number of revertant colonies TA1537 ([2]; S9 mix −, dose 5000 μg/plate): 2 | Number of revertant colonies TA100 ([3]; S9 mix +, dose 6.9 μg/plate): 134 | Number of revertant colonies TA100 ([3]; S9 mix +, dose 21 μg/plate): 123 | Number of revertant colonies TA100 ([3]; S9 mix +, dose 62 μg/plate): 108 | Number of revertant colonies TA100 ([3]; S9 mix +, dose 185 μg/plate): 103 | Number of revertant colonies TA100 ([3]; S9 mix +, dose 556 μg/plate): 99 | Number of revertant colonies TA100 ([3]; S9 mix +, dose 1667 μg/plate): 67 | Number of revertant colonies TA100 ([3]; S9 mix +, dose 5000 μg/plate): 43 | Number of revertant colonies TA100 ([3]; S9 mix −, dose 6.9 μg/plate): 88 | Number of revertant colonies TA100 ([3]; S9 mix −, dose 21 μg/plate): 91 | Number of revertant colonies TA100 ([3]; S9 mix −, dose 62 μg/plate): 93 | Number of revertant colonies TA100 ([3]; S9 mix −, dose 185 μg/plate): 92 | Number of revertant colonies TA100 ([3]; S9 mix −, dose 556 μg/plate): 59 | Number of revertant colonies TA100 ([3]; S9 mix −, dose 1667 μg/plate): 29 | Number of revertant colonies TA100 ([3]; S9 mix −, dose 5000 μg/plate): 12 | Number of revertant colonies WP2uvrA (Escherichia coli WP2uvrA; S9 mix +, dose 6.9 μg/plate): 22 | Number of revertant colonies WP2uvrA (Escherichia coli WP2uvrA; S9 mix +, dose 21 μg/plate): 22 | Number of revertant colonies WP2uvrA (Escherichia coli WP2uvrA; S9 mix +, dose 62 μg/plate): 21 | Number of revertant colonies WP2uvrA (Escherichia coli WP2uvrA; S9 mix +, dose 185 μg/plate): 21 | Number of revertant colonies WP2uvrA (Escherichia coli WP2uvrA; S9 mix +, dose 556 μg/plate): 18 | Number of revertant colonies WP2uvrA (Escherichia coli WP2uvrA; S9 mix +, dose 1667 μg/plate): 21 | Number of revertant colonies WP2uvrA (Escherichia coli WP2uvrA; S9 mix +, dose 5000 μg/plate): 19 | Number of revertant colonies WP2uvrA (Escherichia coli WP2uvrA; S9 mix −, dose 6.9 μg/plate): 23 | Number of revertant colonies WP2uvrA (Escherichia coli WP2uvrA; S9 mix −, dose 21 μg/plate): 15 | Number of revertant colonies WP2uvrA (Escherichia coli WP2uvrA; S9 mix −, dose 62 μg/plate): 23 | Number of revertant colonies WP2uvrA (Escherichia coli WP2uvrA; S9 mix −, dose 185 μg/plate): 20 | Number of revertant colonies WP2uvrA (Escherichia coli WP2uvrA; S9 mix −, dose 556 μg/plate): 22 | Number of revertant colonies WP2uvrA (Escherichia coli WP2uvrA; S9 mix −, dose 1667 μg/plate): 19 | Number of revertant colonies WP2uvrA (Escherichia coli WP2uvrA; S9 mix −, dose 5000 μg/plate): 14

Nc1cc(-c2cccc(OCC(F)(F)F)c2)n(-c2ccc(F)cc2)n1 [Metabolite B, reference compound]
potential to induce reverse mutations [1]: had potential to induce reverse mutations | potential to induce reverse mutations ([2]; in the absence of S9 mix): had potential to induce reverse mutations | potential to induce reverse mutations ([2]; in the presence of S9 mix): had potential to induce reverse mutations | potential to induce reverse mutations [3]: had potential to induce reverse mutations | potential to induce reverse mutations ([4]; TA1535, in the presence of S9 mix): had potential to induce reverse mutations

Cc1ccc(-n2nc(N)cc2-c2cccc(OCC(F)(F)F)c2)cc1 [Metabolite C, reference compound]
potential to induce reverse mutations [1]: had potential to induce reverse mutations | potential to induce reverse mutations ([2]; in the presence of S9 mix): had potential to induce reverse mutations | potential to induce reverse mutations [3]: had potential to induce reverse mutations | potential to induce reverse mutations (Escherichia coli WP2uvrA; WP2uvrA, in the absence of S9 mix): had potential to induce reverse mutations
